Values after ≈ are worked out from the molar mass of the structure shown. Like-named read-outs stand apart in the source and are kept apart here.
Columns and labels:
Format in all cases: cell-based
[1] = system: Shigella flexneri 4b JS 11811; test: MIC, serial dilution on nutrient agar; conditions: 4BJS11811, 37°C, 18 hours, read-out: Minimum Inhibitory Concentrations
Experimental: (§1) The minimum inhibitory concentrations (mcg/ml) of 1,2'-di-N-[(S)-4-amino-2-hydroxybutyryl]-kanamycin B (abbreviated as 1,2'-AHB-KMB), 1,2'-di-N-[(S)-4-amino-2-hydroxybutyryl]-3',4'-dideoxykanamycin B (abbreviated as 1,2'-AHB-DKB), 1,2'-di-N-DL-isoseryl-3',4'-dideoxykanamycin B (abbreviated as 1,2'-IS-DKB) and 1,2'-di-N-DL-isoseryl-kanamycin B (abbreviated as 1,2'-IS-KMB) against various microorganisms were determined according to serial dilution method using nutrient agar medium at 37°C, the estimation being effected after 18 hours incubation. For comparison, the minimum inhibitory concentrations of kanamycin B (abbreviated as KMB) and 3',4'-dideoxykanamycin B (abbreviated as DKB) were also determined in the same manner as mentioned above.

[2] = system: Escherichia coli K-12 ML 1630; test: MIC, serial dilution on nutrient agar; conditions: K12ML1630, 37°C, 18 hours, read-out: Minimum Inhibitory Concentrations
Experimental: as §1

Shigella sonnei JS 11746 = test: MIC, serial dilution on nutrient agar; conditions: JS11746, 37°C, 18 hours, read-out: Minimum Inhibitory Concentrations
Experimental: as §1

[3] = system: Staphylococcus aureus Terejima; test: MIC, serial dilution on nutrient agar; conditions: Staphylococcus aureus Terejima; nutrient agar, 37°C, 18 hours; read-out: Minimum Inhibitory Concentrations
Proteus vulgaris OX 19 = test: MIC, serial dilution on nutrient agar; conditions: read-out: Minimum Inhibitory Concentrations
[4] = system: Escherichia coli LA290 R55; test: MIC, serial dilution on nutrient agar; conditions: LA290R55, 18 h, read-out: Minimum Inhibitory Concentrations
[5] = system: Klebsiella pneumoniae PCI 602; test: MIC, serial dilution on nutrient agar; conditions: read-out: Minimum Inhibitory Concentrations
[6] = system: Bacillus subtilis NRRL B-558; test: MIC, serial dilution on nutrient agar; conditions: NRRLB558; Bacillus subtilis NRRL B-558; nutrient agar, 37°C, 18 hours; read-out: Minimum Inhibitory Concentrations
[7] = system: Pseudomonas aeruginosa A3; test: MIC, serial dilution on nutrient agar; conditions: read-out: Minimum Inhibitory Concentrations
[8] = system: Escherichia coli LA290 R64; test: MIC, serial dilution on nutrient agar; conditions: LA290R64, 18 h, read-out: Minimum Inhibitory Concentrations
Salmonella typhosa T-63 = test: MIC, serial dilution on nutrient agar; conditions: Salmonella enterica, 18 h, read-out: Minimum Inhibitory Concentrations
[9] = system: Escherichia coli K-12 ML 1410; test: MIC, serial dilution on nutrient agar; conditions: read-out: Minimum Inhibitory Concentrations
[10] = system: Staphylococcus aureus FDA 209P; test: MIC, serial dilution on nutrient agar; conditions: FDA209P, read-out: Minimum Inhibitory Concentrations
[11] = system: Shigella dysenteriae JS 11910; test: MIC, serial dilution on nutrient agar; conditions: JS11910, 18 h, read-out: Minimum Inhibitory Concentrations
[12] = system: Pseudomonas aeruginosa 99; test: MIC, serial dilution on nutrient agar; conditions: Pseudomonas aeruginosa 99; nutrient agar, 37°C, 18 hours; read-out: Minimum Inhibitory Concentrations
Escherichia coli K-12 = test: MIC, serial dilution on nutrient agar; conditions: read-out: Minimum Inhibitory Concentrations
[13] = system: Klebsiella pneumoniae 22 -3038; test: MIC, serial dilution on nutrient agar; conditions: read-out: Minimum Inhibitory Concentrations
[14] = system: Pseudomonas aeruginosa No.12; test: MIC, serial dilution on nutrient agar; conditions: read-out: Minimum Inhibitory Concentrations
[15] = system: Staphylococcus aureus Smith; test: MIC, serial dilution on nutrient agar; conditions: Staphylococcus aureus Smith; nutrient agar, 37°C, 18 hours; read-out: Minimum Inhibitory Concentrations
[16] = system: Escherichia coli K-12 ML 1410 R81; test: MIC, serial dilution on nutrient agar; conditions: 18 h, read-out: Minimum Inhibitory Concentrations
Escherichia coli NIHJ = test: MIC, serial dilution on nutrient agar; conditions: read-out: Minimum Inhibitory Concentrations
Sarcina lutea PCI 1001 = test: MIC, serial dilution on nutrient agar; conditions: Micrococcus luteus, read-out: Minimum Inhibitory Concentrations
[17] = system: Salmonella enteritidis 1891; test: MIC, serial dilution on nutrient agar; conditions: Salmonella enterica, read-out: Minimum Inhibitory Concentrations
[18] = system: Escherichia coli K-12 ML 1629; test: MIC, serial dilution on nutrient agar; conditions: read-out: Minimum Inhibitory Concentrations
[19] = system: Pseudomonas aeruginosa GN315; test: MIC, serial dilution on nutrient agar; conditions: Pseudomonas aeruginosa GN315; nutrient agar, 37°C, 18 hours; read-out: Minimum Inhibitory Concentrations
[20] = system: Escherichia coli JR66/W677; test: MIC, serial dilution on nutrient agar; conditions: Escherichia coli, JR66/W677, 18 h, read-out: Minimum Inhibitory Concentrations
Bacillus anthracis = test: microbe, parasite or virus in culture; conditions: 18 h, read-out: Minimum Inhibitory Concentrations
[21] = system: Bacillus subtilis PCI 219; test: MIC, serial dilution on nutrient agar; conditions: PCI219; Bacillus subtilis PCI 219; nutrient agar, 37°C, 18 hours; read-out: Minimum Inhibitory Concentrations
[22] = system: Corynebacterium bovis 1810; test: MIC, serial dilution on nutrient agar; conditions: read-out: Minimum Inhibitory Concentrations
[23] = system: Escherichia coli LA290 R56; test: MIC, serial dilution on nutrient agar; conditions: LA290R56, 18 h, read-out: Minimum Inhibitory Concentrations
Escherichia coli W677 = test: MIC, serial dilution on nutrient agar; conditions: Escherichia coli W677; nutrient agar, 37°C, 18 hours; read-out: Minimum Inhibitory Concentrations
[24] = system: Bacillus cereus ATCC 10702; test: MIC, serial dilution on nutrient agar; conditions: read-out: Minimum Inhibitory Concentrations
[25] = system: Mycobacterium smegmatis ATCC 607; test: MIC, serial dilution on nutrient agar; conditions: Mycolicibacterium smegmatis, ATCC607; Mycobacterium smegmatis ATCC 607; nutrient agar, 37°C, 18 hours; read-out: Minimum Inhibitory Concentrations
[26] = system: Pseudomonas aeruginosa TI-13; test: MIC, serial dilution on nutrient agar; conditions: TI13; Pseudomonas aeruginosa TI-13; nutrient agar, 37°C, 18 hours; read-out: Minimum Inhibitory Concentrations

## NCC[C@H](O)C(=O)N[C@@H]1CC[C@@H](CN)O[C@@H]1O[C@H]1[C@H](O)[C@@H](O[C@H]2O[C@H](CO)[C@@H](O)[C@H](N)[C@H]2O)[C@H](NC(=O)[C@@H](O)CCN)C[C@@H]1N [1,2'-AHB-DKB, 1,2'-di-N-[(S)-4-amino-2-hydroxybutyryl]-3',4'-dideoxykanamycin B]
[1]
  MIC: 6.25 µg/mL (≈ 9.56 µM)
[2]
  MIC: 3.13 µg/mL (≈ 4.79 µM)
Shigella sonnei JS 11746
  MIC: 6.25 µg/mL (≈ 9.56 µM)
[3]
  MIC: < 0.2 µg/mL
Proteus vulgaris OX 19; OX19, Proteus vulgaris OX 19, nutrient agar, 37°C, 18 hours
  MIC: 0.78 µg/mL (≈ 1.19 µM)
[4]
  MIC: 0.78 µg/mL (≈ 1.19 µM)
[5]; PCI602, Klebsiella pneumoniae PCI 602, nutrient agar, 37°C, 18 hours
  MIC: 0.78 µg/mL (≈ 1.19 µM)
[6]
  MIC: 0.2 µg/mL (≈ 0.306 µM)
[7]; Pseudomonas aeruginosa A3, nutrient agar, 37°C, 18 hours
  MIC: 25 µg/mL (≈ 38.2 µM)
[8]
  MIC: 0.78 µg/mL (≈ 1.19 µM)
Salmonella typhosa T-63
  MIC: 0.78 µg/mL (≈ 1.19 µM)
[9]; K12ML1410, Escherichia coli K-12 ML 1410, nutrient agar, 37°C, 18 hours
  MIC: 3.13 µg/mL (≈ 4.79 µM)
[10]; Staphylococcus aureus FDA 209P, nutrient agar, 37°C, 18 hours
  MIC: 0.78 µg/mL (≈ 1.19 µM)
[11]
  MIC: 6.25 µg/mL (≈ 9.56 µM)
[12]
  MIC: 50 µg/mL (≈ 76.5 µM)
Escherichia coli K-12; K12, Escherichia coli K-12, nutrient agar, 37°C, 18 hours
  MIC: 1.56 µg/mL (≈ 2.39 µM)
[13]; 223038, Klebsiella pneumoniae 22 -3038, nutrient agar, 37°C, 18 hours
  MIC: 1.56 µg/mL (≈ 2.39 µM)
[14]; Pseudomonas aeruginosa, NO.12, 18 h
  MIC: 6.25 µg/mL (≈ 9.56 µM)
[15]
  MIC: 0.2 µg/mL (≈ 0.306 µM)
[16]
  MIC: 1.56 µg/mL (≈ 2.39 µM)
Escherichia coli NIHJ; Escherichia coli NIHJ, nutrient agar, 37°C, 18 hours
  MIC: 3.13 µg/mL (≈ 4.79 µM)
Sarcina lutea PCI 1001; PCI1001, Sarcina lutea PCI 1001, nutrient agar, 37°C, 18 hours
  MIC: 1.56 µg/mL (≈ 2.39 µM)
[17]; Salmonella enteritidis 1891, nutrient agar, 37°C, 18 hours
  MIC: 1.56 µg/mL (≈ 2.39 µM)
[18]; K12ML1629, Escherichia coli K-12 ML 1629, nutrient agar, 37°C, 18 hours
  MIC: 3.13 µg/mL (≈ 4.79 µM)
[19]
  MIC: 100 µg/mL (≈ 153 µM)
[20]
  MIC: 6.25 µg/mL (≈ 9.56 µM)
Bacillus anthracis
  MIC: < 0.2 µg/mL
[21]
  MIC: < 0.2 µg/mL
[22]; Corynebacterium bovis 1810, nutrient agar, 37°C, 18 hours
  MIC: 0.78 µg/mL (≈ 1.19 µM)
[23]
  MIC: 0.78 µg/mL (≈ 1.19 µM)
Escherichia coli W677
  MIC: 1.56 µg/mL (≈ 2.39 µM)
[24]; ATCC10702, Bacillus cereus ATCC 10702, nutrient agar, 37°C, 18 hours
  MIC: 1.56 µg/mL (≈ 2.39 µM)
[25]
  MIC: 0.2 µg/mL (≈ 0.306 µM)
[26]
  MIC: 12.5 µg/mL (≈ 19.1 µM)

## NCC[C@H](O)C(=O)N[C@H]1[C@@H](O[C@H]2[C@H](O)[C@@H](O[C@H]3O[C@H](CO)[C@@H](O)[C@H](N)[C@H]3O)[C@H](NC(=O)[C@@H](O)CCN)C[C@@H]2N)O[C@H](CN)[C@@H](O)[C@@H]1O [1,2'-AHB-KMB, 1,2'-di-N-[(S)-4-amino-2-hydroxybutyryl]-kanamycin B]
[1]
  MIC: 12.5 µg/mL (≈ 18.2 µM)
[2]
  MIC: 3.13 µg/mL (≈ 4.56 µM)
Shigella sonnei JS 11746
  MIC: 6.25 µg/mL (≈ 9.11 µM)
[3]
  MIC: < 0.2 µg/mL
Proteus vulgaris OX 19; Proteus vulgaris, OX19, 18 h
  MIC: 3.13 µg/mL (≈ 4.56 µM)
[4]
  MIC: 3.13 µg/mL (≈ 4.56 µM)
[5]; Klebsiella pneumoniae, PCI602, 18 h
  MIC: 3.13 µg/mL (≈ 4.56 µM)
[6]
  MIC: 0.78 µg/mL (≈ 1.14 µM)
[7]; Pseudomonas aeruginosa, A3, 18 h
  MIC: 12.5 µg/mL (≈ 18.2 µM)
[8]
  MIC: 1.56 µg/mL (≈ 2.27 µM)
Salmonella typhosa T-63
  MIC: 3.13 µg/mL (≈ 4.56 µM)
[9]; Escherichia coli, K12ML1410, 18 h
  MIC: 3.13 µg/mL (≈ 4.56 µM)
[10]; Staphylococcus aureus, 18 h
  MIC: 6.25 µg/mL (≈ 9.11 µM)
[11]
  MIC: 12.5 µg/mL (≈ 18.2 µM)
[12]
  MIC: 50 µg/mL (≈ 72.9 µM)
Escherichia coli K-12; Escherichia coli, K12, 18 h
  MIC: 3.13 µg/mL (≈ 4.56 µM)
[13]; Klebsiella pneumoniae, 223038, 18 h
  MIC: 3.13 µg/mL (≈ 4.56 µM)
[14]; Pseudomonas aeruginosa No.12, nutrient agar, 37°C, 18 hours
  MIC: 25 µg/mL (≈ 36.5 µM)
[15]
  MIC: 0.39 µg/mL (≈ 0.569 µM)
[16]
  MIC: 6.25 µg/mL (≈ 9.11 µM)
Escherichia coli NIHJ; Escherichia coli, 18 h
  MIC: 6.25 µg/mL (≈ 9.11 µM)
Sarcina lutea PCI 1001; PCI1001, 18 h
  MIC: 6.25 µg/mL (≈ 9.11 µM)
[17]; ENTERITIDIS, 18 h
  MIC: 3.13 µg/mL (≈ 4.56 µM)
[18]; Escherichia coli, K12ML1629, 18 h
  MIC: 3.13 µg/mL (≈ 4.56 µM)
[19]
  MIC: > 100 µg/mL
[20]
  MIC: 6.25 µg/mL (≈ 9.11 µM)
Bacillus anthracis
  MIC: 0.39 µg/mL (≈ 0.569 µM)
[21]
  MIC: < 0.2 µg/mL
[22]; Corynebacterium bovis, 1810, 18 h
  MIC: 3.13 µg/mL (≈ 4.56 µM)
[23]
  MIC: 1.56 µg/mL (≈ 2.27 µM)
Escherichia coli W677
  MIC: 1.56 µg/mL (≈ 2.27 µM)
[24]; Bacillus cereus, ATCC10702, 18 h
  MIC: 12.5 µg/mL (≈ 18.2 µM)
[25]
  MIC: 0.78 µg/mL (≈ 1.14 µM)
[26]
  MIC: 25 µg/mL (≈ 36.5 µM)

— patent US3940382A, “1,2'-Di-N-substituted kanamycin B compounds” (Zaidan Hojin Biseibutsu Kagaku Kenkyu Kai, priority 1973, dated 1976)
